For 1 molecule, inhibition results are on record in paper PMC4148593, “Activation of spleen cells by ArtinM may account for its immunomodulatory properties” (Cell and Tissue Research, 2014).

The inhibition is the relative decrease from the control value, in per cent.

In the assay the target is T1, rArtinM (recombinant ArtinM) (Artocarpus heterophyllus, UniProt Q2VPW4).
T1 construct: recombinant, expressed in E. coli BL21; monomer
T1 sequence (Q2VPW4 2-150): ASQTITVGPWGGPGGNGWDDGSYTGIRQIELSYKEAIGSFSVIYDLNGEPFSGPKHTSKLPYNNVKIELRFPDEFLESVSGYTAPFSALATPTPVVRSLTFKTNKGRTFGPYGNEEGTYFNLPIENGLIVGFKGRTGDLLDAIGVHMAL
The assay is described as follows: MTT assay, inhibition of lectin-induced mitochondrial activity of murine spleen cells. Format: cell-based. Particulars: read-out: % inhibition at 50 mM. On the technique in general: Formazan colour is commonly taken as a measure of viable cells.

As for `OC[C@H]1OC(O)[C@@H](O)[C@@H](O)[C@@H]1O` (stereo partly drawn) [D-mannose], the inhibition at 50000 µM came to 80%.
